Data: patent publication US20260115250A1, “METHODS OF TREATING AGE-RELATED MACULAR DEGENERATION” (Character Biosciences, Inc., priority 2022, published 2026)
Peptide text beside a SMILES is read from it.

Columns and labels:
LDLR = LDLR (Homo sapiens, UniProt P01130); test: KD (µM)
Excerpt: Table printed on a drawing sheet, FIG. 23
Title: Buffer: HBS + 0.05% P20
Head of the field: KD (µM)
The patent's description of the figure: FIG. 23 is a table showing the binding kinetics results of LDLR binding assays (SPR), high surfactant preparation as described herein for select peptides shown in FIG. 1A-1I.
First copying reader's note: Middle of three side-by-side panels of FIG. 23; the KD cells hold value ± error together.
Where the first naming reader finds the target: description_of_the_figure: FIG. 23 is a table showing the binding kinetics results of LDLR binding assays (SPR)

ARPE-19 cells [1] = test: ARPE-19 cell lysis (Sytox Green); format: cell-based, human; conditions: 3.16-100 μM peptide, 2 h
Method: These figures illustrate ARPE-19 cell lysis. ARPE-19 cells were grown in 96-well plates to 75-85% confluence. Peptides at 10 mM were diluted in serum-free DMEM:F12 media into a 20 μM working solution (a 2× solution). Sytox Green was prepared in serum-free DMEM:F12 at a 1 μM working solution (a 2× solution). Equivalent volumes of the peptide and Sytox Green solutions were added to empty 96-well plates and mixed gently. Final peptide concentration was 10 μM. ARPE-19 cells (˜80% confluent in 96-well plates) were washed with DPBS and then incubated in 100 μL of peptide/Sytox Green mixture for 2 h at 37° C. Cells were fixed in 4% paraformaldehyde solution in DPBS and then incubated in 10 μM Hoechst solution for 10 min, washed, and imaged on a Yokogawa CQ1 high-content imager. CellPathfinder software was used to count live/dead cells in 4 fields of view at 20× magnification. Percent (%) lysis was calculated by dividing the number of Sytox Green+ nuclei by the total number of Hoechst+ nuclei.
ARPE-19 cells were grown in 96-well plates to 75-85% confluence. Peptides at 10 mM were diluted in serum-free DMEM: F12 media to solutions between […]. Sytox Green was prepared in serum-free DMEM: F12 media at a 1 μM working solution. Equivalent volumes of the peptide and Sytox Green solutions were added to empty 96-well plates and mixed gently. Final peptide concentration was 3.16-100 μM. ARPE-19 cells (˜80% confluent in 96-well plates) were washed with DPBS and then incubated in 100 μL of peptide/Sytox Green mixture for 2 h at 37° C. Cells were fixed in 4% paraformaldehyde solution in DPBS and then incubated in 10 μM Hoechst solution for 10 min, washed, and imaged on a Yokogawa CQ1 high-content imager. CellPathfinder software was used to count live/dead cells in 4 fields of view at 20× magnification. Percent (%) lysis was calculated by dividing the number of Sytox Green+ nuclei by the total number of Hoechst+ nuclei. Non-linear regression was used to calculate EC50 values.

HepG2 cells [2] = test: HepG2 cholesterol import (BODIPY-Cholesterol); format: cell-based; conditions: HepG2, peptide:lipid complexes from 30 μM diluted 1:3
Method: HepG2 cells were seeded on a 96-well plate at 10,000 cells per well and grown to confluence. A solution of 500 μM DMPC and 50 μM BODIPY-Cholesterol was prepared in serum free EMEM. Peptides were diluted to 20 μM in serum free EMEM (a 2× solution). Peptides were added to lipid solution in equal parts (60 μL each) to create final 1× concentration and incubated for 1 hour at 37° C. HepG2 cells were serum starved in serum-free EMEM for 1 hour at 37° C. Peptide: Lipid complexes (100 μL total volume per well) were transferred to HepG2 cells for 2 hours at 37° C. Cells were washed, fixed, and intracellular fluorescence was read on Promega GloMax at 475 nm excitation, 500-550 emission. Fluorescence values were background corrected from no treatment conditions. Data are presented as mean+SD for two runs.
HepG2 cells were seeded on 96-well plates at 10,000 cells per well and grown to confluence. Peptide: Lipid complexes were created by preparing a solution of serum-free EMEM containing 30 μM peptide, 750 μM DMPC, and 75 μM BODIPY-Cholesterol. Peptide: Lipid complexes were serially diluted 1:3 for 5 concentrations, and incubated for 1 hour at 37° C. […] Cells were washed, fixed, and intracellular fluorescence was read on Promega GloMax at 475 nm excitation, 500-550 emission. Fluorescence values were background corrected from no treatment conditions. […]

ARPE-19 cells [3] = test: ARPE-19 cholesterol import (BODIPY-Cholesterol); format: cell-based, human; conditions: ARPE-19, 0.37-30 μM peptide, FIG. 15
Method: FIG. 12 and FIGS. 14A-14B illustrate the results of ARPE-19 cholesterol import testing. ARPE-19 cells were seeded on 96-well plates at 25,000 cells per well and grown to confluence. A 2× solution of 500 μM DMPC and 50 μM BODIPY-Cholesterol were prepared in serum free DMEM: F12. Peptides were diluted to 20 μM in serum free DMEM: F12 (a 2× solution). Peptides were added to lipid solution in equal parts (60 μL each) and were incubated for 1 hour at 37° C. ARPE-19 cells were serum starved in serum free DMEM: F12 for 1 hour at 37° C. Peptide: Lipid complexes (100 μL total volume per well) were transferred to ARPE-19 cells for 2 hours at 37° C. Cells were washed, fixed, and intracellular fluorescence was read on Promega GloMax at 475 nm excitation, 500-550 emission. Fluorescence values were background corrected from no treatment conditions. Data are presented as mean+SD for two runs.
FIG. 15 illustrates ARPE-19 cholesterol import titration curves for a subset of the peptides. ARPE-19 cells were seeded on 96-well plates at 25,000 cells per well and grown to confluence. A 2× solution of 500 μM DMPC and 50 μM BODIPY-Cholesterol was prepared in serum free DMEM: F12. Peptides were diluted to 0.74-60 μM in serum free DMEM: F12 (2× solutions). Peptides were added to lipid solution in equal parts (60 μL each) to create final peptide concentrations of 0.37-30 µM and incubated for 1 hour at 37° C. ARPE-19 cells were serum starved in serum free DMEM: F12 for 1 hour at 37° C. Peptide: Lipid complexes (100 μL total volume per well) were transferred to ARPE-19 cells for 2 hours at 37° C. Cells were washed, fixed, and intracellular fluorescence was read on Promega GloMax at 475 nm excitation, 500-550 emission. Fluorescence values were background corrected from no treatment conditions. […]
ARPE-19 cells were seeded on 96-well plates at 25,000 cells per well and grown to confluence. […] Cells were washed, fixed, and intracellular fluorescence was read on Promega GloMax at 475 nm excitation, 500-550 emission. Fluorescence values were background corrected from no treatment conditions. […]

[4] = DMPC solubility assay, 0.5 mM DMPC (turbidity reduction); format: biochemical
How it was run: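 Peptides (100 μM final, or 3.16-100 μM for titrations) incubated with 0.5 mM DMPC in water for 15 minutes at room temperature. Turbidity read as absorbance at 405 nm; EC50 from non-linear regression, mean+SD over two runs.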

HepG2 cells [5] = test: HepG2 GAG dependent cholesterol import (with or without heparin); format: cell-based; conditions: HepG2, 10 μM peptide, with or without 100 μg/mL heparin
Method: (§1) HepG2 cells were seeded on 96-well plates at 10,000 cells per well and grown to confluence. A 2× solution of 500 μM DMPC and 50 μM BODIPY-Cholesterol with or without 100 μg/mL heparin was prepared in serum free EMEM. Peptides were diluted to 20 μM in serum-free EMEM (a 2× solution). Peptides were added to lipid solution in equal parts (60 μL each) and incubated for 1 hour at 37° C. HepG2 cells were serum starved in serum-free EMEM for 1 hour at 37° C. Peptide: Lipid complexes (100 μL total volume per well) were transferred to HepG2 cells for 2 hours at 37° C. Cells were washed, fixed, and intracellular fluorescence was read on Promega GloMax at 475 nm excitation, 500-550 emission. Fluorescence values were background corrected from no treatment conditions. Data are presented ±SD for 2 runs.

ARPE-19 cells [6] = test: ARPE-19 GAG-dependent cholesterol import (with or without heparin); format: cell-based, human; conditions: ARPE-19, 10 μM peptide
Method: as §1, with “ARPE-19” for “HepG2”, “25,000” for “10,000”, “µg/mL” for “μg/mL”, “DMEM: F12.” for “EMEM.”, “serum free DMEM: F12” for “serum-free EMEM”

Chain of LDLR (P01130 22-860 limits assumed): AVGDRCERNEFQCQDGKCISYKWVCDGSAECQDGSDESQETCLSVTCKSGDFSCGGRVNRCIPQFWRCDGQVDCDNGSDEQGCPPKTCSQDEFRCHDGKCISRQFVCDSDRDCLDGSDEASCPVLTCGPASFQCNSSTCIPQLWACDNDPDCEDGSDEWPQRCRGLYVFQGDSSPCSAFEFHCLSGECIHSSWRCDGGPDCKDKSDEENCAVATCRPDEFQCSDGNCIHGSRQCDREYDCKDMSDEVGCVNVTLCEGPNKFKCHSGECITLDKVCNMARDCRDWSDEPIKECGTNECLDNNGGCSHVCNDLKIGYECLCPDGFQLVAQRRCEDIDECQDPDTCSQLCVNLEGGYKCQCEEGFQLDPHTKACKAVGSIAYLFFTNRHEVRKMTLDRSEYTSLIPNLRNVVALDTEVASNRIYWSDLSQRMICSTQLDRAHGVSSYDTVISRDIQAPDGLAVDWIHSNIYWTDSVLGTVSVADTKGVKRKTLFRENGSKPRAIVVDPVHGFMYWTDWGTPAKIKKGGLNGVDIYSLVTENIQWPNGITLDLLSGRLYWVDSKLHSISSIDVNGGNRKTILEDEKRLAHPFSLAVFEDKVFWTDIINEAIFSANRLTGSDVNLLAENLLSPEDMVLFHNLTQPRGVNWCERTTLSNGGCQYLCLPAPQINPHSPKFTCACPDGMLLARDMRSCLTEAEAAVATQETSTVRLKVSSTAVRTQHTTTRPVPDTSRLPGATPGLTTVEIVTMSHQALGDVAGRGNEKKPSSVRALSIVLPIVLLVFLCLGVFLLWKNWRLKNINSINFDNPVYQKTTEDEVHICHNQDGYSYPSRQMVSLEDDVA

| Kd (LDLR) [µM] | SMILES | EC50 (ARPE-19 cells [1]) [µM] | cholesterol import titration (HepG2 cells [2]) | cholesterol import titration (ARPE-19 cells [3]) | EC50 ([4]; 3.16-100 μM peptides, 15 minutes) [µM] | DMPC solubilizing activity ([4]; FIGS. 2A-2D and 3A-3C) | GAG dependence of cholesterol import (HepG2 cells [5]) | GAG dependence of cholesterol import (ARPE-19 cells [6]) |
| --- | --- | --- | --- | --- | --- | --- | --- | --- |
| 150 ± 41.7 | CC(C)C[C@H](NC(=O)[C@H](CCCNC(=N)N)NC(=O)[C@H](CC(=O)O)NC(=O)[C@H](CCC(N)=O)NC(=O)[C@H](CC(C)C)NC(=O)[C@H](CCCCN)NC(=O)[C@H](CC(=O)O)NC(=O)CNC(=O)[C@H](CC(=O)O)NC(=O)[C@H](CCCNC(=N)N)NC(=O)[C@H](Cc1ccccc1)NC(=O)[C@H](CC(C)C)NC(=O)[C@H](CCCNC(=N)N)NC(=O)[C@H](CCCCN)NC(=O)[C@H](CCCNC(=N)N)NC(=O)[C@H](CC(C)C)NC(=O)[C@H](CCCCN)NC(=O)[C@H](CCCNC(=N)N)NC(=O)[C@H](CC(C)C)NC(=O)[C@@H](N)Cc1c[nH]cn1)C(=O)N[C@@H](C)C(=O)N[C@@H](CCC(=O)O)C(=O)N[C@@H](Cc1ccc(O)cc1)C(=O)N[C@@H](CCC(N)=O)C(=O)N[C@@H](C)C(=O)N[C@@H](CCCNC(=N)N)C(=O)N[C@@H](C)C(=O)N[C@@H](CCCCN)C(=O)N[C@@H](CCC(=O)O)C(=O)N[C@@H](C)C(=O)N[C@@H](Cc1ccccc1)C(=O)N[C@@H](CC(=O)O)C(=O)N[C@@H](CCCNC(=N)N)C(=O)O [T-060] (H-HLRKLRKRLFRDGDKLQDRLAEYQARAKEAFDR-OH; N-terminus and C-terminus assumed) |  |  |  |  |  |  |  |
|  | CSCC[C@H](NC(=O)[C@H](CC(C)C)NC(=O)[C@H](CC(=O)O)NC(=O)[C@H](CCCCN)NC(=O)CNC(=O)[C@H](Cc1ccc(O)cc1)NC(=O)[C@H](CC(=O)O)NC(=O)[C@@H](NC(=O)[C@@H](NC(=O)[C@@H](NC(=O)[C@H](CCC(N)=O)NC(=O)[C@H](Cc1ccccc1)NC(=O)[C@H](Cc1ccc(O)cc1)NC(=O)[C@H](CCC(N)=O)NC(=O)[C@H](CO)NC(=O)[C@@H](NC(=O)[C@H](CC(C)C)NC(=O)[C@H](CO)NC(=O)[C@H](CCCNC(=N)N)NC(=O)[C@H](CC(C)C)NC(=O)[C@H](CC(C)C)NC(=O)[C@H](CCCNC(=N)N)NC(=O)[C@H](CCCCN)NC(=O)[C@H](CCCNC(=N)N)NC(=O)[C@H](CC(C)C)NC(=O)[C@H](CCCCN)NC(=O)[C@H](CCCNC(=N)N)NC(=O)[C@H](CC(C)C)NC(=O)[C@@H](N)Cc1c[nH]cn1)C(C)C)[C@@H](C)O)C(C)C)[C@@H](C)O)C(=O)O [T-027] (H-HLRKLRKRLLRSLVSQYFQTVTDYGKDLM-OH; N-terminus and C-terminus assumed) | 40.1 | concentration-dependent cholesterol import activity | concentration-dependent increase in cholesterol import | 56.6 | significant activity | rely on GAG binding for cholesterol import activity | rely on GAG binding for cholesterol import activity |
